Assay results as given in BindingDB's records for patent US20240335420 (Eurofarma, 2024).

Tests used:
[1] = biological target: Sodium channel protein type 9 subunit alpha (Homo sapiens, UniProt Q15858); experiment: In Vitro Assay (Protocol 1)
Procedure: (§1) Compounds of Formula (I), were diluted in eight concentrations in the extracellular solution composed of physiological saline, buffered with HEPES (mM): NaCl, 137; KCl, 4; CaCl2, 3.8; MgCl2, 1; HEPES, 10; Glucose, 10; pH 7.4. The […], 50; CsF, 90; MgCl2, 5; EGTA, 5; HEPES, 10; pH 7.2. The duration of exposure of each compound with the cells expressing Nav 1.7 or Nav 1.8 was at least five minutes and the assays were performed at room temperature.The measurements of the sodium currents of Nav 1.8 and Nav 1.7 were obtained using the voltage protocols described below:Protocol 1: A holding voltage of −90 mV was established followed by a voltage phase of 200 ms to −120 mV, followed by a voltage step of 10 mV for 1 second for Nav 1.8 or 0 mV for Nav 1.7, followed by a step of −100 mV for 20 ms, followed by a step of 20 ms for 10 mV for Nav 1.8 or 0 mV for Nav 1.7 (TP1A) before returning to the holding voltage of −90 mV.Protocol 2: A holding voltage of −100 mV was established followed by an inactivation voltage step at −40 mV for 8 seconds, followed by a −100 mV step for […], followed by a 20 ms step for 10 mV for Nav 1.8 or 0 mV for Nav 1.7 (TP1A) before returning to the holding voltage of −100 mV.Protocols were repeated at a frequency of 0.1 Hz and current amplitude was quantified over the TP1A phase log. The variation in the peak amplitude of the current was evaluated according to the Formula described below, after exposure of the cells expressing the channels, at each concentration of the different compounds:%Block=(1-(ITP1A,molecule/ITP1A,basal)×100%,where |TP1A, basal, and |TP1A, molecule represent the entry peaks of sodium currents into TP1A prior to exposure to the compound and in the presence of the compound, respectively.

[2] = biological target: Sodium channel protein type 10 subunit alpha (Homo sapiens, UniProt Q9Y5Y9); experiment: In Vitro Assay (Protocol 1)
Procedure: as §1

Sequence of Sodium channel protein type 10 subunit alpha (Q9Y5Y9 whole entry): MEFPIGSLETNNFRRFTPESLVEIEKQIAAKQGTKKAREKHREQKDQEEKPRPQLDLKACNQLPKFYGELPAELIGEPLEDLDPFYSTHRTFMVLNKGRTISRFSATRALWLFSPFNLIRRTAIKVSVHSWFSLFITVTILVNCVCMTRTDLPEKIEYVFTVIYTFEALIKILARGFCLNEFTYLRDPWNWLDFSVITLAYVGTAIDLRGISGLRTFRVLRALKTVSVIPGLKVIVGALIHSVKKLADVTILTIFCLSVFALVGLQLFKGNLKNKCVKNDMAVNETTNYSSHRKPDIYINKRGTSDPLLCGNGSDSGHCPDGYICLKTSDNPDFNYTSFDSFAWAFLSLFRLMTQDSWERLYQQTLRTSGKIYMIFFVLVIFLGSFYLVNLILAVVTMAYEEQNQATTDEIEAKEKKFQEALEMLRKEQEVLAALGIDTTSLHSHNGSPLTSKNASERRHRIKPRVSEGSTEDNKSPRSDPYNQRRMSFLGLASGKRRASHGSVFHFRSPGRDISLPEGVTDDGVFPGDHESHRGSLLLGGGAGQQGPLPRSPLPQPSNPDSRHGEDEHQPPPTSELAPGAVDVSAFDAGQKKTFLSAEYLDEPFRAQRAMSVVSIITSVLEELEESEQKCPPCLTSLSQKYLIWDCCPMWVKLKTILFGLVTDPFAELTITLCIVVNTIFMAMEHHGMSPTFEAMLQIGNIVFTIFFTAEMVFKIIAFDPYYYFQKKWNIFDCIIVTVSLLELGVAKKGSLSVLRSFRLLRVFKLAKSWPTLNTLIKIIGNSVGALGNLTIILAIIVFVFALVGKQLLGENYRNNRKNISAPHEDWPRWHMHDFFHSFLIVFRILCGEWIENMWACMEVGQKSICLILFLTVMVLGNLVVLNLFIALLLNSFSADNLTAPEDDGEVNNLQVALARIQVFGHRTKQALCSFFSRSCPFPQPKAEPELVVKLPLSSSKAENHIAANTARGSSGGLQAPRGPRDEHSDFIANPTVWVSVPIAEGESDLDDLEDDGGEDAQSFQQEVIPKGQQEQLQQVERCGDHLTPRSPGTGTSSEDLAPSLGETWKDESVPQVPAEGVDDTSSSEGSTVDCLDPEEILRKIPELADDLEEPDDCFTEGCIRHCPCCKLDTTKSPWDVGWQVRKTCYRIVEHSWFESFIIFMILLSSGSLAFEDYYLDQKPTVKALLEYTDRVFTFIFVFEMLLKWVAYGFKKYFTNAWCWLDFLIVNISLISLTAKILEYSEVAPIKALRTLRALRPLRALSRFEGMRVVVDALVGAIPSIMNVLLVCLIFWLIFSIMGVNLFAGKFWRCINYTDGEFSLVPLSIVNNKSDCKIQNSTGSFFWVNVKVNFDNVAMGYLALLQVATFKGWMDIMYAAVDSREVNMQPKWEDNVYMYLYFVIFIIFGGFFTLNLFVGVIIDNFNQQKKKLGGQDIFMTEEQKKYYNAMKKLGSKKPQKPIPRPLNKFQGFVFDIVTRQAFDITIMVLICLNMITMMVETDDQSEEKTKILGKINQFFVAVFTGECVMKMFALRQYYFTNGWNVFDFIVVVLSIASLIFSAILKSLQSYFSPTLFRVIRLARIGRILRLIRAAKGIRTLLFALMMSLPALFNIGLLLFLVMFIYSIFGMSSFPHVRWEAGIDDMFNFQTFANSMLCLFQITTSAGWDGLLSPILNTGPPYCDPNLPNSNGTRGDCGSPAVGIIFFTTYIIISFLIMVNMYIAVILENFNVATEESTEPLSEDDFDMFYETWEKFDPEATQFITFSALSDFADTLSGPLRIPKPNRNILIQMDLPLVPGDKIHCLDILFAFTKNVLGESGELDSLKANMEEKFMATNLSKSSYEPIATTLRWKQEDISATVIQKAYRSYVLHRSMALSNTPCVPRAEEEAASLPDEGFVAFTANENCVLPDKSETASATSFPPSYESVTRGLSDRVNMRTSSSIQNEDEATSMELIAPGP
Sequence of Sodium channel protein type 9 subunit alpha (Q15858 whole entry): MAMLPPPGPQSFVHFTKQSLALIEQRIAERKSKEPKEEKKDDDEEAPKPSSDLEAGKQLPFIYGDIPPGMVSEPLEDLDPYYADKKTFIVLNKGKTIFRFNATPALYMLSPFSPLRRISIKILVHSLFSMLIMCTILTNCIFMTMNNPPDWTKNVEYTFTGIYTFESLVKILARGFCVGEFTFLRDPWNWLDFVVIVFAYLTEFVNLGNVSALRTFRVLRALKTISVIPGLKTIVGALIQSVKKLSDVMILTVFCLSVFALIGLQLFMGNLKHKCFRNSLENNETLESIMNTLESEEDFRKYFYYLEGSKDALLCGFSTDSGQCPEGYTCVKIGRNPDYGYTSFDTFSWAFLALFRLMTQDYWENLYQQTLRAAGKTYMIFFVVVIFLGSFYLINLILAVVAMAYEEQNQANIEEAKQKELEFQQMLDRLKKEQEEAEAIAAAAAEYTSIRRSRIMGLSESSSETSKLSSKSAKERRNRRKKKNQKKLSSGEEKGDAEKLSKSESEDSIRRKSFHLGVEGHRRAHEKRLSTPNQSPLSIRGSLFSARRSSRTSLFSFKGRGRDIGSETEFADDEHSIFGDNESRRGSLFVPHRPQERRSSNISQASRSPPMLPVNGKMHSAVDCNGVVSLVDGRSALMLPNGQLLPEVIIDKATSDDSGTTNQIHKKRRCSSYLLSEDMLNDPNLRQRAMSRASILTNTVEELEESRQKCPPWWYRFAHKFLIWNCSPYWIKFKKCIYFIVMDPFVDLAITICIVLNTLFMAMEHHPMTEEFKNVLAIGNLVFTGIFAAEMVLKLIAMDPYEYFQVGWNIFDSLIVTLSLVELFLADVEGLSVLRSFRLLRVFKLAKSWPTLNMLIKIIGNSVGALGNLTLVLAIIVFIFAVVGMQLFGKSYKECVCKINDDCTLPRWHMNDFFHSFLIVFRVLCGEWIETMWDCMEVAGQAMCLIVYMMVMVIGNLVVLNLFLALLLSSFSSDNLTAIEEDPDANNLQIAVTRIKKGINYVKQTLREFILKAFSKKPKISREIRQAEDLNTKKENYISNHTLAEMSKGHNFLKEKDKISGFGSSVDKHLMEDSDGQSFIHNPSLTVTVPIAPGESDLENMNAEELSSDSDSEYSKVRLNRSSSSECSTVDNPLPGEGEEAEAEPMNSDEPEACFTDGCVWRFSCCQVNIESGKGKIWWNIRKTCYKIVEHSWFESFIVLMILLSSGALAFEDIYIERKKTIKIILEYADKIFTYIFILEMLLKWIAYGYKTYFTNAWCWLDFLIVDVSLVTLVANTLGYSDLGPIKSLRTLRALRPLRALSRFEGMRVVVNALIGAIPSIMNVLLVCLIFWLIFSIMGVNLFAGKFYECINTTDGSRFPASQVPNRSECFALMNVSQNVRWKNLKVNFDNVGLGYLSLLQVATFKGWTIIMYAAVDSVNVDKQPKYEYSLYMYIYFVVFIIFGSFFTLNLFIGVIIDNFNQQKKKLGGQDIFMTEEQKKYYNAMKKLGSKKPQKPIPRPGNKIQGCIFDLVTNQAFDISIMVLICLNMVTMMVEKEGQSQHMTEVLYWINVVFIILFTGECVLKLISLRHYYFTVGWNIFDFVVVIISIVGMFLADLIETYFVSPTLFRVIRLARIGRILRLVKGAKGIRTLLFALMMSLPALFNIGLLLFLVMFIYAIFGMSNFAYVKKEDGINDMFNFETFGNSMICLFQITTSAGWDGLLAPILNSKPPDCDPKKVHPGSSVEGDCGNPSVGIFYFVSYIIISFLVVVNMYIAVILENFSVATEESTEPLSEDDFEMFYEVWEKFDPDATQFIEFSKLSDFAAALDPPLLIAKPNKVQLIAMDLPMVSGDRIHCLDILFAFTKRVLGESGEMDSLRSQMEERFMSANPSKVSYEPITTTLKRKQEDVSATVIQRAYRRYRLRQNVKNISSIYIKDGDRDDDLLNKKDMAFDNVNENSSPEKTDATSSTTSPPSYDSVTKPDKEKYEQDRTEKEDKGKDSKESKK

IC50 [1] [nM]	IC50 [2] [nM]	SMILES
> 30000	> 30000	O=C(N/N=C/c1cccs1)c1ccc(-c2ccc(Cl)cc2)o1 [US20240335420, Compound 1]
362	1370	COc1cc(/C=N/NC(=O)c2cccc(-c3ccc(Cl)cc3)n2)cc(OC)c1 [US20240335420, Compound 10]
